pIC50: −log10 of the molar value. Where a name gives a salt, the structure may show the parent alone.
What follows are compounds tested against T1, Nav1.7 (or SCN9A) channel (Homo sapiens, UniProt Q15858) (assay: Nav1.7 (hSCN9A) whole-cell electrophysiology, PatchXpress platform). Details: HEK cells stably expressing hSCN9A, held at V1/2 of inactivation, calculated from single point % inhibition, read-out: Nav1.7 EIC50 (estimated IC-50).
T1 construct: expressed in transfected cells; host or cells: HEK cells, stably transfected, G-418 selected
Format: cell-based
Description: The ability of the compounds of list (I) to block the Nav1.7 (or SCN9A) channel was measured using the assay described below.
Human Embryonic Kidney (HEK) cells were transfected with an hSCN9A construct using lipofectamine reagent (Invitrogen), using standard techniques. Cells stably expressing the hSCN9A constructs were identified by their resistance to G-418 (400 μg/ml). Clones were screened for expression using the whole-cell voltage-clamp technique.
HEK cells stably transfected with hSCN9A were maintained in DMEM medium supplemented with 10% heat-inactivated fetal bovine serum and 400 μg/ml G-418 in an incubator at 37° C. with a humidified atmosphere of 10% CO2. For HTS, cells were harvested from flasks by trypsinization and replated in an appropriate multi-well plate (typically 96 or 384 wells/plate) such that confluence would be achieved within 24 hours of plating. For electrophysiological studies, cells were removed from the culture flask by brief trypsinization and re-plated at low density onto glass cover slips. Cells were typically used for electrophysiological experiments within 24 to 72 hours after plating.
Cover slips containing HEK cells expressing hSCN9A were placed in a bath on the stage of an inverted microscope and perfused (approximately 1 ml/minutes) with extracellular solution of the following composition: 138 mM NaCl, 2 mM CaCl2, 5.4 mM KCl, 1 mM MgCl2, 10 mM glucose, and 10 mM HEPES, pH 7.4, with NaOH. […] The osmolarity of the extracellular and intracellular solutions was 300 mOsm/kg and 295 mOsm/kg, respectively. All recordings were made at room temperature (22-24° C.) using AXOPATCH 200B amplifiers and PCLAMP software (Axon Instruments, Burlingame, Calif.).
hSCN9A currents in HEK cells were measured using the whole-cell configuration of the patch-clamp technique (Hamill et al., 1981). Uncompensated series resistance was typically 2 to 5 mega ohms and >85% series resistance compensation was routinely achieved. As a result, voltage errors were negligible and no correction was applied. Current records were acquired at 20 to 50 KHz and filtered at 5 to 10 KHz.
HEK cells stably transfected with hSCN9A were viewed under Hoffman contrast optics and placed in front of an array of flow pipes emitting either control or compound-containing extracellular solutions. All compounds were dissolved in dimethyl sulfoxide to make 10 mM stock solutions, which were then diluted into extracellular solution to attain the final concentrations desired. […] The voltage-dependence of inactivation was determined by applying a series of depolarizing prepulses (8 sec long in 10 mV increments) from a negative holding potential. The voltage was then immediately stepped to 0 mV to assess the magnitude of the sodium current. Currents elicited at 0 mV were plotted as a function of prepulse potential to allow estimation of the voltage at which 50% of the channels were inactivated (midpoint of inactivation or V1/2). Compounds were tested for their ability to inhibit hSCN9A sodium channels by activating the channel with a 20 msec voltage step to 0 mV following an 8 second conditioning prepulse to the empirically determined V1/2. Compound effect (% inhibition) was determined by difference in current amplitude before and after application of test compounds. For ease of comparison, “estimated IC-50” (EIC50) values were calculated from single point electrophysiology data by the following equation, (tested concentration, uM)×(100−% inhibition/% inhibition). Inhibition values <20% and >80% were excluded from the calculation.
Electrophysiological assays were conducted with PatchXpress 7000 hardware and associated software (Molecular Devices Corp). All assay buffers and solutions were identical to those used in conventional whole-cell voltage clamp experiments described above. hSCN9A cells were grown as above to 50%-80% confluency and harvested by trypsinization. […]

T1 sequence (Q15858 whole entry): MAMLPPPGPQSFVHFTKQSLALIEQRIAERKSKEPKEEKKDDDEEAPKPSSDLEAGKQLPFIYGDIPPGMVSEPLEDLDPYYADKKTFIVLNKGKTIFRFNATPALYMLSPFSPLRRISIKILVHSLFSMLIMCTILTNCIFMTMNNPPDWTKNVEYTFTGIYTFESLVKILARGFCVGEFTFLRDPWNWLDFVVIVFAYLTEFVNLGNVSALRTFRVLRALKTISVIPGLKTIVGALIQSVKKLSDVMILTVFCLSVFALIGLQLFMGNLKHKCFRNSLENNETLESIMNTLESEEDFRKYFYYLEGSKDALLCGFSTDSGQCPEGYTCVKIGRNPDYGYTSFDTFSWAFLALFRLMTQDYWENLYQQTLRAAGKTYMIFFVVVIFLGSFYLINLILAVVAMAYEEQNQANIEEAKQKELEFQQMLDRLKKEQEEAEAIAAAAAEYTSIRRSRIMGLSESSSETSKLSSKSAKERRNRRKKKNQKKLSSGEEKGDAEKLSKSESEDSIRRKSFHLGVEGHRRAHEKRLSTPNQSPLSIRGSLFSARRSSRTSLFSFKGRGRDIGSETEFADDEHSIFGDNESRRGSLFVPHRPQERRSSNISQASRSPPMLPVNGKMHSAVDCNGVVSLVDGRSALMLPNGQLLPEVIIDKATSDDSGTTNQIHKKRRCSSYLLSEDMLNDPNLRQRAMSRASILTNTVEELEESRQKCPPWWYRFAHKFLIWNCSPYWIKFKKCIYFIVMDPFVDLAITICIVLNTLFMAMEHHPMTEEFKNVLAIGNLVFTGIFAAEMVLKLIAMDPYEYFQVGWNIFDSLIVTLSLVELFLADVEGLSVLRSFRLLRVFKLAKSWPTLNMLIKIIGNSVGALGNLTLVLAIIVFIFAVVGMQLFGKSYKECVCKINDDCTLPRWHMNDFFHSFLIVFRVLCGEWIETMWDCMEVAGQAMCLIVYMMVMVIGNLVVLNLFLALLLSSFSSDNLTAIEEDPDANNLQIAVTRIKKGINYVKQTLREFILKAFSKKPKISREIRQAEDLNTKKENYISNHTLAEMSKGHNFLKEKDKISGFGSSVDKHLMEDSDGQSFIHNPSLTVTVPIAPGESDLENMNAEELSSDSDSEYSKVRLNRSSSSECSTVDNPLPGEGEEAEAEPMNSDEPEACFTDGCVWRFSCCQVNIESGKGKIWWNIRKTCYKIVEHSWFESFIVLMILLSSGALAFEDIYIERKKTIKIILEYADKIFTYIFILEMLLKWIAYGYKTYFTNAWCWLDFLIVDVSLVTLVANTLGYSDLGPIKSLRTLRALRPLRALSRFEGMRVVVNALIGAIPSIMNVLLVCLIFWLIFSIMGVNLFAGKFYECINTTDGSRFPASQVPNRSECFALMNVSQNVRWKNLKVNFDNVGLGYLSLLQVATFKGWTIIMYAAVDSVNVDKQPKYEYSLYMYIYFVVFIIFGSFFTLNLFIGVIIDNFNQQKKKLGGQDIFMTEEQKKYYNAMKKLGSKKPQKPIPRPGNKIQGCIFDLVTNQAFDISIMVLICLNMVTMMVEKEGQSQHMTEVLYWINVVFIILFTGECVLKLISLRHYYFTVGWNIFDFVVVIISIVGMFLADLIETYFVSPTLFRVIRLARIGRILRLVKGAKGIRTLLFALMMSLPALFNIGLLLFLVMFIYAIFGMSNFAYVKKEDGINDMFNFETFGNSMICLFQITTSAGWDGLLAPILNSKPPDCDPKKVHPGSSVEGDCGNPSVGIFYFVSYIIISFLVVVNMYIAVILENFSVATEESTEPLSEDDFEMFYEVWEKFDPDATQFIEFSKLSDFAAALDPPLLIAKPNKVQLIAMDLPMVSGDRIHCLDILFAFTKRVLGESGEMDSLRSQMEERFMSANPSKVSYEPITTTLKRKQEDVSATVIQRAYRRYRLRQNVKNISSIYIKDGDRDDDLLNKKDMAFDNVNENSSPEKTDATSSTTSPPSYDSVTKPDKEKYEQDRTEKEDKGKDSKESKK

| Structure (SMILES) | pIC50 |
| --- | --- |
| Nc1[nH]ncc1-c1cc(F)ccc1Oc1cc(F)c(S(=O)(=O)Nc2cscn2)cc1Cl [Example 11, 4-[2-(5-Amino-1H-pyrazol-4-yl)-4-fluorophenoxy]-5-chloro-2-fluoro-N-1,3-thiazol-4-ylbenzenesulfonamide trifluoroacetate] | 7.78 |
| Nc1cc(-c2cc(Cl)ccc2Oc2cc(F)c(S(=O)(=O)Nc3cscn3)cc2Cl)ccn1 [Example 10, 4-[2-(2-Aminopyridin-4-yl)-4-chlorophenoxy]-5-chloro-2-fluoro-N-1,3-thiazol-4-ylbenzenesulfonamide trifluoroacetate] | 7.97 |
| Nc1cc(-c2cc(Cl)ccc2Oc2cc(F)c(S(=O)(=O)Nc3ncc(F)cn3)cc2Cl)ccn1 [Example 5, 4-[2-(2-Aminopyridin-4-yl)-4-chlorophenoxy]-5-chloro-2-fluoro-N-(5-fluoropyrimidin-2-yl)benzenesulfonamide dihydrochloride] | 7.93 |
| O=S(=O)(Nc1cscn1)c1cc(Cl)c(Oc2cc(C(F)(F)F)c(F)cc2-c2ccnnc2)cc1F [Example 4, 5-Chloro-2-fluoro-4-[4-fluoro-2-pyridazin-4-yl-5-(trifluoromethyl)phenoxy]-N-1,3-thiazol-4-ylbenzenesulfonamide bis(trifluoroacetate)] | 7.56 |
| Nc1cc(-c2cc(F)ccc2Oc2cc(F)c(S(=O)(=O)Nc3cscn3)cc2Cl)ccn1 [Example 7, 4-[2-(2-Aminopyridin-4-yl)-4-fluorophenoxy]-5-chloro-2-fluoro-N-1,3-thiazol-4-ylbenzenesulfonamide trifluoroacetate] | 7.83 |
| O=S(=O)(Nc1nncs1)c1cc(Cl)c(Oc2ccc(C(F)(F)F)cc2-c2ccnn2C2CNC2)cc1F [Example 13] | 8.96 |
| O=S(=O)(Nc1cscn1)c1cc(Cl)c(Oc2ccc(Cl)cc2-c2ccnc(N3CCNCC3)n2)cc1F [Example 1, 5-Chloro-4-[4-chloro-2-(2-piperazin-1-ylpyrimidin-4-yl)phenoxy]-2-fluoro-N-1,3-thiazol-4-ylbenzenesulfonamide trifluoroacetate] | 8.17 |

More lines, now with the values ahead:

| pIC50 | Structure (SMILES) |
| --- | --- |
| 7.94 | Cc1nnccc1-c1cc(C(F)(F)F)ccc1Oc1ccc(S(=O)(=O)Nc2ncns2)cc1C#N [Example 15, 3-Cyano-4-[2-(3-methylpyridazin-4-yl)-4-(trifluoromethyl)phenoxy]-N-1,2,4-thiadiazol-5-ylbenzenesulfonamide] |
| 8.07 | Nc1cc(-c2cc(C(F)(F)F)ccc2Oc2cc(F)c(S(=O)(=O)Nc3ncc(F)cn3)cc2Cl)ccn1 [Example 6, 4-[2-(2-Aminopyridin-4-yl)-4-(trifluoromethyl)phenoxy]-5-chloro-2-fluoro-N-(5-fluoropyrimidin-2-yl)benzenesulfonamide 4-methylbenzenesulfonate] |
| 8.59 | CN1CC(n2nccc2-c2cc(C(F)(F)F)ccc2Oc2cc(F)c(S(=O)(=O)Nc3nncs3)cc2Cl)C1 [Example 14, 5-Chloro-2-fluoro-4-{4-trifluoromethyl-2-[1-(1-methylazetidin-3-yl)-1H-pyrazol-5-yl]phenoxy}-N-1,3,4-thiadiazol-ylbenzenesulfonamide] |
| 8.30 | O=S(=O)(Nc1nncs1)c1cc(Cl)c(Oc2ccc(Cl)cc2-c2ccnc(N3CCNCC3)n2)cc1F [Example 2, 5-Chloro-4-[4-chloro-2-(2-piperazin-1-ylpyrimidin-4-yl)phenoxy]-2-fluoro-N-1,3,4-thiadiazol-2-ylbenzenesulfonamide trifluoroacetate] |
| 7.62 | Nc1cc(-c2cc(Cl)ccc2Oc2ccc(S(=O)(=O)Nc3nncs3)cc2Cl)ccn1 [Example 9, 4-[2-(2-Aminopyridin-4-yl)-4-chlorophenoxy]-3-chloro-N-1,3,4-thiadiazol-2-ylbenzenesulfonamide trifluoroacetate] |
| 8.00 | Nc1n[nH]cc1-c1cc(OC(F)(F)F)ccc1Oc1cc(F)c(S(=O)(=O)Nc2cscn2)cc1Cl [Example 8, 4-[2-(3-Amino-1H-pyrazol-4-yl)-4-(trifluoromethoxy)phenoxy]-5-chloro-2-fluoro-N-1,3-thiazol-4-ylbenzenesulfonamide dihydrochloride] |
| 8.49 | Cc1cc(S(=O)(=O)Nc2ncns2)ccc1Oc1ccc(C(F)(F)F)cc1-c1ccnnc1 [Example 16, 3-Methyl-4-[2-pyridazin-4-yl-4-(trifluoromethyl)phenoxy]-N-1,2,4-thiadiazol-5-ylbenzenesulfonamide] |
| 7.84 | O=S(=O)(Nc1cscn1)c1cc(Cl)c(Oc2ccc(OC(F)(F)F)cc2-c2ccnnc2)cc1F [Example 12, 5-Chloro-2-fluoro-4-[2-pyridazin-4-yl-4-(trifluoromethoxy)phenoxy]-N-1,3-thiazol-4-ylbenzenesulfonamide trifluoroacetate] |
| 7.74 | O=S(=O)(Nc1cscn1)c1cc(Cl)c(Oc2cc(F)c(C(F)(F)F)cc2-c2ccnnc2)cc1F [Example 3, 5-Chloro-2-fluoro-4-[5-fluoro-2-pyridazin-4-yl-4-(trifluoromethyl)phenoxy]-N-1,3-thiazol-4-ylbenzenesulfonamide] |
| 8.00 | O=S(=O)(Nc1cscn1)c1cc(F)c(Oc2ccc(Cl)cc2-c2ccnc(N3CCNCC3)n2)cc1F [Example 17, 4-[4-chloro-2-(2-piperazin-1-ylpyrimidin-4-yl)phenoxy]2,5-difluoro-N-1,3-thiazol-4-ylbenzenesulfonamide trifluoroacetate] |

Source: US9145407B2, “Sulfonamide compounds” (Pfizer Limited, priority 2010, dated 2015)
